Laboratory results taken from patent US20240239752A1, “BICYCLIC HETEROAROMATIC INHIBITORS OF KLK5” (BioCryst Pharmaceuticals, Inc., priority 2021, published 2024).

Target: T1, recombinant human KLK5 (Homo sapiens, UniProt Q9Y337)
T1 construct: purchased Novoprotein or R&D Systems C415 or 1108-SE
T1 sequence (Q9Y337 23-293): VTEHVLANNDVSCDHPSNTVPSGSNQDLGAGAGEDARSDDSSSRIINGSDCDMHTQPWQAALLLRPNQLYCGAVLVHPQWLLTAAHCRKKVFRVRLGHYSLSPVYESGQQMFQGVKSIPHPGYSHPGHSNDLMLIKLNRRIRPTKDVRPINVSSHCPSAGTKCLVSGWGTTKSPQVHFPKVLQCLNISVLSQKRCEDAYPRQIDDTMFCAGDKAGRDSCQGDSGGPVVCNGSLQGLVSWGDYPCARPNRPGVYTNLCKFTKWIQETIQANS
Assay: Kallikrein (KLK) 5 enzymatic assay (Boc-VPR-AMC fluorogenic substrate)
Format: biochemical
Settings: recombinant human KLK5 0.1 μg/well, Boc-VPR-AMC 100 μM, pH 7.5, room temperature, 1% DMSO; tested a minimum of three times
How it was run: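 Recombinant human KLK5 (0.1 μg/well) was preincubated with compound at room temperature in 0.1 M NaH2PO4, pH 7.5, 1% DMSO, then started with 100 μM Boc-VPR-AMC. The rate was followed at 380/460 nm, and IC50 came from percent inhibition relative to enzyme alone, with at least three runs.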

Row | SMILES | IC50
1 | N=C(N)c1cccc(-c2ccc3c(c2)c(COc2ccccc2CC(=O)O)nn3-c2ccccc2)c1 [Compound 203c, 2-(2-((5-(3-carbamimidoylphenyl)-1-phenyl-1H-indazol-3-yl)methoxy)phenyl)acetic acid] | < 1000 nM
2 | CC(C)n1nc(COc2ccccc2CC(=O)O)c2cc(-c3ccc4nccc(N)c4c3)ccc21 [Compound 25c, 2-(2-((5-(4-aminoquinolin-6-yl)-1-isopropyl-1H-indazol-3-yl)methoxy)phenyl)acetic acid] | 1000 to 10000 nM
3 | Nc1nccc2ccc(-c3cc4c(COc5ccccc5CC(=O)O)cccc4o3)cc12 [Compound 231f, 2-(2-((2-(1-aminoisoquinolin-7-yl)benzofuran-4-yl)methoxy)phenyl)acetic acid] | 1000 to 10000 nM
4 | COCCN1CC(n2nc3ccc(-c4ccc5ccnc(N)c5c4)cc3c2COc2ccccc2CC(=O)O)C1 [Compound 122b, 2-(2-((5-(1-aminoisoquinolin-7-yl)-2-(1-(2-methoxyethyl)azetidin-3-yl)-2H-indazol-3-yl)methoxy)phenyl)acetic acid] | 1000 to 10000 nM
5 | COCCN1CC[C@H](n2nc3ccc(-c4cccc5c(N)nccc45)cc3c2COc2ccccc2CC(=O)O)C1 [Compound 117c, (S)-2-(2-((5-(1-aminoisoquinolin-5-yl)-2-(1-(2-methoxyethyl)pyrrolidin-3-yl)-2H-indazol-3-yl)methoxy)phenyl)acetic acid] | 1000 to 10000 nM
6 | COc1ccc(CC(=O)O)c(OCc2nn(C)c3ccc(-c4ccc5ccnc(N)c5c4)cc23)c1 [Compound 71d, 2-(2-((5-(1-aminoisoquinolin-7-yl)-1-methyl-1H-indazol-3-yl)methoxy)-4-methoxyphenyl)acetic acid] | < 1000 nM
7 | COc1cc2nn(C3CCC3)c(COc3ccccc3CC(=O)O)c2cc1-c1cccc2c(N)nccc12 [Compound 270b, 2-(2-((5-(1-aminoisoquinolin-5-yl)-2-cyclobutyl-6-methoxy-2H-indazol-3-yl)methoxy)phenyl)acetic acid] | > 10000 nM
8 | CCOC(=O)N1CC[C@@H](n2nc(COc3ccccc3CC(=O)O)c3cc(-c4ccc5ccnc(N)c5c4)ccc32)C1 [Compound 342b, (R)-2-(2-((5-(1-aminoisoquinolin-7-yl)-1-(1-(ethoxycarbonyl)pyrrolidin-3-yl)-1H-indazol-3-yl)methoxy)phenyl)acetic acid] | < 1000 nM
9 | CCS(=O)(=O)N1CCC(n2nc(COc3ccccc3CC(=O)O)c3cc(-c4cccc5c(N)nccc45)ccc32)C1 (stereo not shown) [Compound 313b, 2-(2-((5-(1-aminoisoquinolin-5-yl)-1-(1-(ethylsulfonyl)pyrrolidin-3-yl)-1H-indazol-3-yl)methoxy)phenyl)acetic acid] | < 1000 nM
10 | COCCN1CC[C@H](n2nc3ccc(-c4ccc5ccnc(N)c5c4)cc3c2COc2ccccc2CC(=O)O)C1 [Compound 118b, (S)-2-(2-((5-(1-aminoisoquinolin-7-yl)-2-(1-(2-methoxyethyl)pyrrolidin-3-yl)-2H-indazol-3-yl)methoxy)phenyl)acetic acid] | 1000 to 10000 nM
11 | CCCCn1nc(COc2ccccc2CC(=O)O)c2cc(-c3ccc4ccnc(N)c4c3)ccc21 [Compound 184e, 2-(2-((5-(1-aminoisoquinolin-7-yl)-1-butyl-1H-indazol-3-yl)methoxy)phenyl)acetic acid] | < 1000 nM
12 | CC(C)COC(=O)N1CCC2(CC1)CC(Oc1ccccc1CC(=O)O)c1cc(-c3cccc4c(N)nccc34)ccc12 (stereo not shown) [Compound 390b, 2-(2-((5-(1-aminoisoquinolin-5-yl)-1′-(isobutoxycarbonyl)-2,3-dihydrospiro[indene-1,4′-piperidin]-3-yl)oxy)phenyl)acetic acid] | < 1000 nM
13 | CC(C)n1nc(COc2ccccc2CC(=O)O)c2cc(-c3ccc4nc(N)ccc4c3)ccc21 [Compound 35c, 2-(2-((5-(2-aminoquinolin-6-yl)-1-isopropyl-1H-indazol-3-yl)methoxy)phenyl)acetic acid] | > 10000 nM
14 | COc1cc(-c2cccc(C(=N)N)c2)cc2c(COc3ccccc3CC(=O)O)coc12 [Compound 236b, 2-(2-((5-(3-carbamimidoylphenyl)-7-methoxybenzofuran-3-yl)methoxy)phenyl)acetic acid] | < 1000 nM
15 | Nc1nccc2c(-c3cc(-c4ccoc4)c4c(c3)C(Oc3ccccc3CC(=O)O)CC4)cccc12 (stereo not shown) [Compound 261b, 2-(2-((6-(1-aminoisoquinolin-5-yl)-4-(furan-3-yl)-2,3-dihydro-1H-inden-1-yl)oxy)phenyl)acetic acid] | < 1000 nM
16 | CC(C)(C)OC(=O)N1CCC(n2nc(COc3ccccc3CC(=O)O)c3cc(-c4cccc5c(N)nccc45)ccc32)C1 (stereo not shown) [Compound 86h, 2-(2-((5-(1-aminoisoquinolin-5-yl)-1-(1-(tert-butoxycarbonyl)pyrrolidin-3-yl)-1H-indazol-3-yl)methoxy)phenyl)acetic acid] | < 1000 nM
17 | Nc1nccc2c(-c3ccc4c(c3)c(COc3ccccc3CC(=O)O)nn4C3CCCC3)cccc12 [Compound 223b, 2-(2-((5-(1-aminoisoquinolin-5-yl)-1-cyclopentyl-1H-indazol-3-yl)methoxy)phenyl)acetic acid] | < 1000 nM
18 | CCC(=O)N1CCC2(CC1)CC(Oc1cccc(C)c1CC(=O)O)c1cc(-c3ccc4ccnc(N)c4c3)ccc12 (stereo not shown) [Compound 388b, 2-(2-((5-(1-aminoisoquinolin-7-yl)-1′-propionyl-2,3-dihydrospiro[indene-1,4′-piperidin]-3-yl)oxy)-6-methylphenyl)acetic acid] | < 1000 nM
19 | CC(C)OC(=O)N1CC[C@H](n2nc(COc3ccccc3CC(=O)O)c3cc(-c4ccc5ccnc(N)c5c4)ccc32)C1 [Compound 358c, (S)-2-(2-((5-(1-aminoisoquinolin-7-yl)-1-(1-(isopropoxycarbonyl)pyrrolidin-3-yl)-1H-indazol-3-yl)methoxy)phenyl)acetic acid] | < 1000 nM
20 | CC(C)n1nc(COc2ccccc2CC(=O)O)c2cc(-c3ccc(C(=N)N)c(O)c3)ccc21 [Compound 29c, 2-(2-((5-(4-carbamimidoyl-3-hydroxyphenyl)-1-isopropyl-1H-indazol-3-yl)methoxy)phenyl)acetic acid] | > 10000 nM

Further lines, results first:

Row | IC50 | SMILES
21 | > 10000 nM | CC(C)n1nc(COc2ccccc2CC(=O)O)c2cc(-c3ccc4c(N)cccc4c3)ccc21 [Compound 43d, 2-(2-((5-(5-aminonaphthalen-2-yl)-1-isopropyl-1H-indazol-3-yl)methoxy)phenyl)acetic acid]
22 | > 10000 nM | Nc1nccc2ccc(-c3ccc4c(c3)c(Cn3ccc5cccc(C(=O)O)c53)nn4C3CCOC3)cc12 (stereo not shown) [Compound 275b, 1-((5-(1-aminoisoquinolin-7-yl)-1-(tetrahydrofuran-3-yl)-1H-indazol-3-yl)methyl)-1H-indole-7-carboxylic acid]
23 | < 1000 nM | Cc1cccc(OCc2nn(C3CCC(F)(F)C3)c3ccc(-c4ccc5ccnc(N)c5c4)cc23)c1CC(=O)O (stereo not shown) [Compound 277b, 2-(2-((5-(1-aminoisoquinolin-7-yl)-1-(3,3-difluorocyclopentyl)-1H-indazol-3-yl)methoxy)-6-methylphenyl)acetic acid]
24 | < 1000 nM | CC(=O)N1CCC2(CC1)CC(Oc1cccc(C)c1CC(=O)O)c1cc(-c3cccc4c(N)nccc34)ccc12 (stereo not shown) [Compound 407b, 2-(2-((1′-acetyl-5-(1-aminoisoquinolin-5-yl)-2,3-dihydrospiro[indene-1,4′-piperidin]-3-yl)oxy)-6-methylphenyl)acetic acid]
25 | > 10000 nM | CC(C)n1nc(COc2ccccc2CC(=O)O)c2cc(-c3ccn4ncc(N)c4n3)ccc21 [Compound 33c, 2-(2-((5-(3-aminopyrazolo[1,5-a]pyrimidin-5-yl)-1-isopropyl-1H-indazol-3-yl)methoxy)phenyl)acetic acid]
26 | < 1000 nM | Nc1nccc2ccc(-c3ccc4c(c3)c(COc3ccccc3CC(=O)O)nn4C3CN(CCO)C3)cc12 [Compound 148b, 2-(2-((5-(1-aminoisoquinolin-7-yl)-1-(1-(2-hydroxyethyl)azetidin-3-yl)-1H-indazol-3-yl)methoxy)phenyl)acetic acid]
27 | < 1000 nM | Nc1nccc2ccc(-c3cc(F)c4c(c3)C(Oc3ccccc3CC(=O)O)CC4)cc12 (stereo not shown) [Compound 207e, 2-(2-((6-(1-aminoisoquinolin-7-yl)-4-fluoro-2,3-dihydro-1H-inden-1-yl)oxy)phenyl)acetic acid]
28 | < 1000 nM | COc1ccc(CC(=O)O)c(OCc2nn(C(C)C)c3ccc(-c4ccc5ccnc(N)c5c4)cc23)c1 [Compound 61b, 2-(2-((5-(1-aminoisoquinolin-7-yl)-1-isopropyl-1H-indazol-3-yl)methoxy)-4-methoxyphenyl)acetic acid]
29 | 1000 to 10000 nM | Cc1ccc(OCc2nn(C3CCC3)c3ccc(-c4ccc5ccnc(N)c5c4)cc23)c(CC(=O)O)c1 [Compound 164c, 2-(2-((5-(1-aminoisoquinolin-7-yl)-1-cyclobutyl-1H-indazol-3-yl)methoxy)-5-methylphenyl)acetic acid]
30 | < 1000 nM | COc1ccc(CC(=O)O)c(O[C@@H]2CCc3ccc(-c4cccc5c(N)nccc45)cc32)c1 [Compound 420b, (R)-2-(2-((6-(1-aminoisoquinolin-5-yl)-2,3-dihydro-1H-inden-1-yl)oxy)-4-methoxyphenyl)acetic acid]
31 | 1000 to 10000 nM | Nc1nccc2ccc(-c3ccc4c(c3)C(Oc3ccccc3CC(=O)O)CCC4)cc12 (stereo not shown) [Compound 204d, 2-(2-((7-(1-aminoisoquinolin-7-yl)-1,2,3,4-tetrahydronaphthalen-1-yl)oxy)phenyl)acetic acid]
